Results as given in patent US11690922B2, “Lipid compound as well as lipid carrier, nucleic acid lipid nanoparticle composition and pharmaceutical preparation containing same” (Purecodon (Hong Kong) Biopharma Ltd., priority 2021, dated 2023).

Columns and labels:
[1] = Particle size, PDI, Zeta and entrapment efficiency of each LNP@mRNA; format: physicochemical; details: for Entrapment efficiency (%) / PDI / Particle size (nm) / Zeta (mV): luciferase mRNA; for particle size of the LNP@mRNA (in words): LNP@mRNA with cholesterol, DSPC, PEG-DMG (Example 25), compared among compounds 1-8
Procedure: Compounds 1-8 were respectively dissolved in ethanol together with cholesterol, DSPC, PEG-DMG at a molar ratio of 50:38.5:10:1.5, luciferase mRNA was dissolved in a 50 mM citric acid buffered saline solution with a pH of 4.0, a volume ratio of the two solutions was 1:3, two phases were rapidly mixed by using microfluidics and a buffer environment was replaced into PBS with a pH of 7.4 by using dialysis or a tangential flow, so as to remove ethanol, and eight LNP@mRNAs were respectively prepared.
Thus, it can be seen that the entrapment efficiency to the nucleic acid drug by the compound provided by the present invention is high, and, using this compound as a carrier can improve the in-vivo delivery efficiency of the nucleic acid drug.
Compounds 13, and 14 and cholesterol, DOPC, and PEG-DMG were dissolved in ethanol at a molar ratio of 50:38.5:10:1.5, luciferase mRNA was dissolved in a 50 mM citric acid buffered saline solution with a pH of 4.0, a volume ratio of the two solutions was 1:3, two phases were mixed rapidly by using microfluidics and a buffer environment was replaced into PBS with a pH of 7.4 by using dialysis or a tangential flow, so as to remove ethanol, and two LNP@mRNAs were respectively prepared.

mice = experiment: Fluorescence intensity and organ distribution in mice 6 hours after injection of luciferase LNP@mRNA; format: in vivo; details: mouse, after 6 hours; for organ distribution of mRNA expression: intramuscular injection
Procedure: LNP@mRNAs prepared were respectively injected into a mouse body via a caudal vein or muscle, and after 6 hours, the fluorescence intensity and organ distribution in mice were tested. […] Therefore, a lipid compound with a specific structure can be chosen as a lipid carrier based on an organ in which the nucleic acid drug needs to be enriched.
LNP@mRNAs prepared were respectively injected into a mouse body via a caudal vein or muscle, and after 6 hours, the fluorescence intensity and organ distribution in mice were tested.

[2] = Zeta electric potentials of LNP@mRNA under different pHs; format: physicochemical; details: Example 26 LNP (cholesterol, DOPC, PEG-DMG), FIG. 7
[3] = LNP@mRNA of compound:cholesterol:DSPC:PEG-DMG 50:38.5:10:1.5 molar, PBS pH 7.4 (Example 25)
[4] = LNP@mRNA of compound:cholesterol:DOPC:PEG-DMG 50:38.5:10:1.5 molar, PBS pH 7.4 (Example 26)

Row | Compound | Entrapment efficiency (%) [1, 3] [%] | PDI [1, 3] | Particle size (nm) [1, 3] [nm] | Zeta (mV) [1, 3] [mV] | particle size of the LNP@mRNA (in words) [1] | further results
1 | CCCCCCCCC(CCCCCC)C(=O)OCCCCOC(=O)CCN(CCO)CCC(=O)OCCCCOC(=O)C(CCCCCC)CCCCCCCC (stereo not drawn) [Compound 1] | 87 | 0.06 | 95 | −9 | small | 
2 | CCCCCCC(CCCC)C(=O)OCCCCOC(=O)CCN(CCCCCO)CCC(=O)OCCCCOC(=O)C(CCCC)CCCCCC (stereo not drawn) [Compound 8] | 82 | 0.07 | 124 | −12 |  | 
3 | CCCCCCCCC(CCCCCC)C(=O)OCCCCOC(=O)CCN(CCCn1ccnc1)CCC(=O)OCCCCOC(=O)C(CCCCCC)CCCCCCCC (stereo not drawn) [Compound 14] |  |  |  |  |  | organ distribution of mRNA expression (mice; Example 26 LNP (DOPC), FIG. 5 and 6): mainly expressed in spleen; Entrapment efficiency (%) [1, 4]: 87%; PDI [1, 4]: 0.07; Particle size (nm) [1, 4]: 122 nm; Zeta (mV) [1, 4]: −11 mV
4 | CCCCCCC(CCCC)C(=O)OCCCCOC(=O)CCN(CCCn1ccnc1)CCC(=O)OCCCCOC(=O)C(CCCC)CCCCCC (stereo not drawn) [Compound 13] |  |  |  |  |  | maximum fluorescence of intramuscular injection of LNP@mRNA (effect) (mice; Example 26 LNP (DOPC), comparison of compounds 13 and 14, FIG. 4): better; Entrapment efficiency (%) [1, 4]: 85%; PDI [1, 4]: 0.03; Particle size (nm) [1, 4]: 156 nm; Zeta (mV) [1, 4]: −19 mV; Zeta electric potential of the LNP@mRNA ([2]; pH about 2): strong positive electricity; Zeta electric potential of the LNP@mRNA ([2]; pH close to 5): electric neutrality; Zeta electric potential of the LNP@mRNA ([2]; pH greater than 8): strong electronegativity
5 | CCCCCCCCC(CCCCCC)C(=O)OCCCCOC(=O)CCN(CCCCO)CCC(=O)OCCCCOC(=O)C(CCCCCC)CCCCCCCC (stereo not drawn) [Compound 3] | 86 | 0.07 | 76 | −15 | small | 
6 | CCCCCCCCC(CCCCCC)C(=O)OCCCCOC(=O)CCN(CCCCCO)CCC(=O)OCCCCOC(=O)C(CCCCCC)CCCCCCCC (stereo not drawn) [Compound 4] | 82 | 0.09 | 77 | −12 | small | 
7 | CCCCCCCCC(CCCCCC)C(=O)OCCCCOC(=O)CCN(CCCO)CCC(=O)OCCCCOC(=O)C(CCCCCC)CCCCCCCC (stereo not drawn) [Compound 2] | 86 | 0.07 | 68 | −14 | small | 

More lines, main results first:

Row | Entrapment efficiency (%) [1, 3] [%] | PDI [1, 3] | Particle size (nm) [1, 3] [nm] | Zeta (mV) [1, 3] [mV] | particle size of the LNP@mRNA (in words) [1] | Compound | further results
8 | 82 | 0.05 | 116 | −18 |  | CCCCCCC(CCCC)C(=O)OCCCCOC(=O)CCN(CCCCO)CCC(=O)OCCCCOC(=O)C(CCCC)CCCCCC (stereo not drawn) [Compound 7] | maximum fluorescence of intramuscular injection of LNP@mRNA (effect) (mice; Example 25 LNP (DSPC), comparison among compounds 1-8, FIG. 1): better; organ distribution of mRNA expression (mice; Example 25 LNP (DSPC), FIG. 2 and 3): manly expressed in spleen
9 | 80 | 0.10 | 114 | −13 |  | CCCCCCC(CCCC)C(=O)OCCCCOC(=O)CCN(CCO)CCC(=O)OCCCCOC(=O)C(CCCC)CCCCCC (stereo not drawn) [Compound 5] | 
10 | 72 | 0.06 | 125 | −12 |  | CCCCCCC(CCCC)C(=O)OCCCCOC(=O)CCN(CCCO)CCC(=O)OCCCCOC(=O)C(CCCC)CCCCCC (stereo not drawn) [Compound 6] | 
